# Data as given in ChEMBL document CHEMBL1122893, “Bile acids with cyclopropane-containing side chain. 2. Synthesis and properties of 3 alpha,7 beta-dihydroxy-22,23-methylene-5 beta-cholan-24-oic acid (2-sulfoethyl)amide” (J Med Chem, 1985).
# Assay: Evaluated for critical micellular concentration (CMC) by dye solubilization method
row,CMC,SMILES
1,14.5 mM,CC(C1CC1C(=O)NCCS(=O)(=O)O)C1CC[C@H]2[C@@H]3[C@@H](O)CC4C[C@H](O)CCC4(C)[C@H]3CCC12C (stereo partly drawn)
2,18 mM,CC(CCC(=O)NCCS(=O)(=O)O)C1CC[C@H]2[C@@H]3[C@@H](O)CC4C[C@H](O)CCC4(C)[C@H]3CCC12C (stereo partly drawn)

row,SMILES,CMC
1,CC(C1CC1C(=O)O)C1CC[C@H]2[C@@H]3[C@@H](O)CC4C[C@H](O)CCC4(C)[C@H]3CCC12C (stereo partly drawn),15.5 mM
